Data taken from patent publication US20170071918A1 (THE UNIVERSITY OF HONG KONG, priority 2015, published 2017).
Where “and” joins values, the source holds several entries; their conditions need not be identical. Equal values may be shown once.

What was measured:
NF-κB promoter activity = test: Luciferase reporter assay, NF-κB promoter; assay type: cell-based, human
Method: (§1) NF-κB promoter plasmid pNF-κB-Luc or CD47 luciferase promoter plasmid were transfected together with pRL-cytomegalovirus as normalization using Lipofectamine 2000 (Thermo Fisher Scientific). Cell were incubated for 48 hours prior to detection by Dual-Luciferase Reporter Assay System Kit (Promega) according to manufacterer's protocol. Gaussia Luciferase Assay Kit (GeneCopoeia) was used for CD47 detection. Samples were detected with Infinite F200 Tecan Multiplate reader (Tecan Austria GmbH).

[1] = test system: NF-κB (nuclear p65 (Ser536), cytosolic p-IκBα (Ser32/36)); test: Western blotting of NF-κB activation; assay type: cell-based, human
Method: upon lysis with Buffer A (0.5 mM DTT, 10 mM HEPES, 10 mM KCl 1.5 mM MgCl2, pH7.9) for 15 minutes on ice and 0.5% NP-40 was added before extraction by centrifugation. The remaining pellet was treated with RIPA buffer (50 mM Tris-HCl pH7.4, 1% NP-40, 0.05% SDS 150 mM NaCl, 1 mM EDTA) for 30 minutes on ice and the nuclear fraction was obtained by centrifugation.
Western blots were developed using an ECL Plus kit (Amersham Biosciences, Piscataway, N.J.). The primary antibodies included mouse anti-human p65 (Ser536), mouse anti-human p-Akt (Ser473), anti-human p-Erk (Thr202/Tyr204), rabbit anti-human Bcl-2, rabbit anti-human cleaved caspase-9, rabbit anti-human cleaved PARP, mouse anti-human p-IκBα (Ser32/36) (Cell Signal Technology) and mouse anti-human α-tubulin, rabbit anti-human Bax, rabbit anti-human SP1 (PEP2) (Santa Cruz Technology, Santa Cruz, Calif.). After washing, the membrane was incubated with horseradish peroxidase-conjugated anti-mouse or rabbit antibody (Amersham) and then visualized with enhanced chemiluminescence plus according to the manufacturer's protocol.

CD47 promoter activity = test: Luciferase reporter assay, CD47 promoter; assay type: cell-based, human
Method: as §1

CD47 expression = test: Flow cytometric analysis of cell-surface CD47; assay type: cell-based, human
Method: Phycoerythrin (PE)-conjugated CD47 (BD PharMingen, San Jose, Calif.), APC-conjugated CD133 (MACS Miltenyi Biotec), FITC-conjugated CD24 (MACS Miltenyi Biotec), FITC-conjugated EPCAM (Becton Dickinson), were incubated in phosphate-buffered saline (PBS) containing 2% fetal bovine serum (FBS) for 30 minutes at 4° C. Isotype-matched mouse immunoglobulins served as controls. The samples were analyzed using a Canto II flow cytometer and FACSdiva software (BD Biosciences, San Jose, Calif.).

[2] = test system: NF-κB binding to the CD47 promoter; test: ChIP-qPCR assay of NF-κB occupancy on the CD47 promoter; assay type: cell-based, human
Method: The cells were processed for ChIP assays according to Upstate CHIP protocol. Briefly, cells were cross-linked for 10 min with 1% formaldehyde and lysed. Lysate pellets were resuspended and sonicated with a Microson sonifier XL-2000 (Misonix) for 10 cycles (ON/OFF 30 seconds; amplitude 10 microns). Protein-DNA complexes were immunoprecipitated using p65 (C-20) antibody (Santa Cruz Technology, Santa Cruz, Calif.) or Normal rabbit IgG (Thermo Fisher Scientific, Rockford, Ill.) bound to protein A agarose, eluted, and digested with proteinase K. For qPCR analysis of the ChIP DNA samples before amplicon generation, QIAquick-purified immunoprecipitates were dissolved in 30 μl of water. Standard PCR reactions using […] of the immunoprecipitated DNA were performed with a SYBR Green PCR kit (Applied Biosystems) using primers which generates a PCR amplicon flanking −564 and -1740 base pairs upstream of the NM 001777 (CD47) transcription start site based on bioinformatics analysis on the Human Genome Build from the UCSC Genome Browser February 2009 (GRCh37/hg19) Assembly. Calculation of NF-κB occupancy on the CD47 promoter was performed according to the ChIP-qPCR primer assay data analysis template from Superarray Bioscience (Frederick, Md.).

[3] = test system: Huh-7 cells (mock-treated and sorafenib-resistant); test: Annexin V staining apoptosis assay, Huh-7; assay type: cell-based, human
Method: (§2) Cells were stained in binding buffer, proipidium iodide (PI) and FITC-conjugated Annexin V as provided by the Annexin-V-FLUO+S Staining Kit (Roche Diagnostics) according to manufacturer's instructions. Analysis was determined using a Canto II flow cytometer and FACSdiva software (BD Biosciences).

[4] = test system: Bel-7402 cells (mock-treated and sorafenib-resistant); test: Annexin V staining apoptosis assay, Bel-7402; assay type: cell-based, human
Method: as §2

[5] = test system: mock-treated and sorafenib-resistant HCC cells (Bel-7402 and Huh-7); test: XTT cell proliferation assay; assay type: cell-based, human; conditions: sorafenib 5 to 25 μM, 48 h; mock-treated vs sorafenib-resistant cells
Method: After 48 h, (2,3-Bis-(2-Methoxy-4-Nitro-5-Sulfophenyl)-2H-Tetrazolium-5-Carboxanilide) (XTT) dye, at a concentration of 5 mg/mL (Sigma-Aldrich, St Louis, Mo.), was added and the plates were incubated for 12 h in a moist chamber at 37° C. Optical density was determined by eluting the dye with dimethyl sulfoxide (Sigma-Aldrich) and the absorbance was measured at 570 nm. At least three independent experiments were performed.

PDTX#5 tumor tissues = test: TUNEL assay of apoptotic nuclei in PDTX#5 tumors; assay type: in vivo, mice; conditions: tumors harvested day 31
Method: The TUNEL assay was performed to detect apoptotic cells using in situ cell death detection kit (Roche Diagnostics, Indianapolis, Ind.). Briefly, paraffin-embedded tissues were fixed with 15 μg/mL proteinase K in 10 mM Tris/HCl at pH 7.4. The slides were then incubated with the TUNEL reaction mixture for 1 h at 37° C. After washing, the slides were incubated with a horseradish peroxidase-conjugated anti-fluorescein antibody for 30 min at 37° C. Stained slides were imaged on an Aperio Scanscope® CS imager (Vista, Calif.), generating 0.43 μm/pixel whole slide images. These images were compiled, and number of apoptotic nuclei was quantitated using the Aperio Spectrum® software with a pixel count algorithm.

MHCC97L cells = test: Annexin V staining apoptosis assay, MHCC97L; assay type: cell-based, human; conditions: sorafenib 10 μM; MHCC97L shCD47 vs control
Method: as §2

[6] = test system: patient-derived HCC tumor xenografts (PDTX#1 and PDTX#5); test: Sorafenib treatment of PDTX#1 and PDTX#5 xenografts (in vivo selection); conditions: sorafenib 100 mg/kg oral for 31 days; NOD-SCID mice
Source text: Using this in vivo treatment, we enriched the proportion of sorafenib-resistant HCC cells in residual tumors.

CD47 (human) = CD47 (human) (UniProt Q08722); test: cell-based or functional assay
[7] = TNF-α for 1 hour, Bel-7402 and PLC/PRF/5 cells
[8] = TNF-α 20 ng/mL, PLC/PRF/5 and Bel-7402 cells
[9] = IMD-0354, Huh-7 and MHCC97L cells

## TNF-α
NF-κB promoter activity; [7]
  NF-κB promoter activity: increase in NF-κB promoter activity
[1]; [8]
  NF-κB activation (nuclear p65 (Ser536) and cytosolic p-IκBα (Ser32/36)): successfully induced NF-κB activation
CD47 promoter activity; [7]
  CD47 promoter activity: corresponding increase in CD47 promoter activity
CD47 expression; [8]
  CD47 expression on the surface of HCC cells: increase in CD47 expression
[2]; Bel-7402 cells, site 1, 20 ng/mL TNF-α, 1 hour before fixation (untreated 1.5-fold)
  Fold enrichment of NF-κB binding relative to background: 2.5 fold
[2]; Bel-7402 cells, site 2, 20 ng/mL TNF-α, 1 hour before fixation (untreated 1.6-fold)
  Fold enrichment of NF-κB binding relative to background: 2.5 fold

## O=C(Nc1cc(C(F)(F)F)cc(C(F)(F)F)c1)c1cc(Cl)ccc1O [IMD-0354]
[3]; 0.05 μM IMD-0354, Huh-7
  Toxic effects on cells: no toxic effects
[3]; 0.05 μM IMD-0354 cotreatment with sorafenib, Huh-7
  Sensitization to sorafenib: sensitized
[3]; sorafenib plus IMD-0354, mock-treated Huh-7
  Annexin V-positive (apoptotic) cells: 50.2%
[3]; sorafenib plus IMD-0354, sorafenib-resistant Huh-7
  Annexin V-positive (apoptotic) cells: 33.9%
NF-κB promoter activity; [9]
  NF-κB promoter activity: significantly down-regulated
[4]; 0.5 μM IMD-0354, Bel-7402
  Toxic effects on cells: no toxic effects
[4]; 0.5 μM IMD-0354 cotreatment with sorafenib, Bel-7402
  Sensitization to sorafenib: sensitized
[4]; sorafenib plus IMD-0354 at 0.5 μM, mock-treated Bel-7402
  Annexin V-positive (apoptotic) cells: 30.8%
[4]; sorafenib plus IMD-0354 at 0.5 μM, sorafenib-resistant Bel-7402
  Annexin V-positive (apoptotic) cells: 32.9%
[1]; IMD-0354 at 1 μM in Huh-7 and 3 μM in MHCC97L cells
  NF-κB activation (phosphorylation of p65 and IκBα): effectively suppressed NF-κB activation
CD47 promoter activity; [9]
  CD47 promoter activity: significantly down-regulated
CD47 expression; IMD-0354, MHCC97L and Huh-7 cells
  Cell-surface expression of CD47: reduction in cell-surface expression of CD47
[2]; Huh-7 cells, site 1, 1 μM IMD-0354 for 24 hours (untreated 1.4-fold)
  Fold enrichment of NF-κB binding relative to background: 1.1 fold
[2]; Huh-7 cells, site 2, 1 μM IMD-0354 for 24 hours (untreated 1.8-fold)
  Fold enrichment of NF-κB binding relative to background: 0.9 fold
[2]; MHCC97L cells, site 1, 3 μM IMD-0354 for 24 hours (untreated 4.3-fold)
  Fold enrichment of NF-κB binding relative to background: 1.4 fold
[2]; MHCC97L cells, site 2, 3 μM IMD-0354 for 24 hours (untreated 2.8-fold)
  Fold enrichment of NF-κB binding relative to background: 1.5 fold

## CNC(=O)c1cc(Oc2ccc(NC(=O)Nc3ccc(Cl)c(C(F)(F)F)c3)cc2)ccn1 [sorafenib]
[3]; sorafenib 10 μM, Huh-7 shCD47 vs control
  Sensitivity of cells to sorafenib after CD47 knockdown: increased the sensitivity of cells to sorafenib
[3]; sorafenib alone, mock-treated Huh-7
  Annexin V-positive (apoptotic) cells: 37.7% and 43.0%
[3]; sorafenib alone, sorafenib-resistant Huh-7
  Annexin V-positive (apoptotic) cells: 28.4% and 35.1%
[3]; sorafenib, mock-treated Huh-7, after CD47 knockdown
  Annexin V-positive (apoptotic) cells: 57.9%
[3]; sorafenib, mock-treated Huh-7, before CD47 knockdown (nontarget control)
  Annexin V-positive (apoptotic) cells: 48.8%
[3]; sorafenib, sorafenib-resistant Huh-7, after CD47 knockdown
  Annexin V-positive (apoptotic) cells: 56.9%
[3]; sorafenib, sorafenib-resistant Huh-7, before CD47 knockdown (nontarget control)
  Annexin V-positive (apoptotic) cells: 38.8%
[5]
  Growth-suppressive effect on cell proliferation: significantly greater in mock-treated cells
PDTX#5 tumor tissues
  Percentage of apoptotic nuclei in tumor tissues (TUNEL): higher
[4]; sorafenib 15 μM, mock-treated Bel-7402, after CD47 knockdown
  Annexin V-positive (apoptotic) cells: 38%
[4]; sorafenib 15 μM, mock-treated Bel-7402, before CD47 knockdown (nontarget control)
  Annexin V-positive (apoptotic) cells: 25.2%
[4]; sorafenib 15 μM, sorafenib-resistant Bel-7402, after CD47 knockdown
  Annexin V-positive (apoptotic) cells: 37.6%
[4]; sorafenib 15 μM, sorafenib-resistant Bel-7402, before CD47 knockdown (nontarget control)
  Annexin V-positive (apoptotic) cells: 19.1%
[4]; sorafenib alone, mock-treated Bel-7402
  Annexin V-positive (apoptotic) cells: 29.0%
[4]; sorafenib alone, sorafenib-resistant Bel-7402
  Annexin V-positive (apoptotic) cells: 14.9% and 13.2%
MHCC97L cells
  Sensitivity of cells to sorafenib after CD47 knockdown: increased the sensitivity of cells to sorafenib
[6]
  Effect on xenograft tumors: tumor inhibition

B1: Monoclonal antibody against CD47 (B6H12) (antibody, from another filing, V domains shown)
VH: EVQLVESGGDLVKPGGSLKLSCAASGFTFSGYGMSWVRQTPDKRLEWVATITSGGTYTYYPDSVKGRFTISRDNAKNTLYLQIDSLKSEDTAIYFCARSLAGNAMDYWGQGTSVTVSS
VL: DIVMTQSPATLSVTPGDRVSLSCRASQTISDYLHWYQQKSHESPRLLIKFASQSISGIPSRFSGSGSGSDFTLSINSVEPEDVGVYYCQNGHGFPRTFGGGTKLEIK
CD47 (human)
  sorafenib sensitivity, mock-treated Bel-7402 cells, without to with anti-CD47 antibody at 2 µg/mL: 29 to 37.6%
  sorafenib sensitivity, mock-treated Huh-7 cells, without to with anti-CD47 antibody at 2 µg/mL: 43 to 48.5%
  sorafenib sensitivity, sorafenib-resistant Bel-7402 cells, without to with anti-CD47 antibody at 2 µg/mL: 13.2 to 38.4%
  sorafenib sensitivity, sorafenib-resistant Huh-7 cells, without to with anti-CD47 antibody at 2 µg/mL: 35.1 to 39.3%
